From PubChem BioAssay AID328 (DTP/NCI, 2004)
Values joined by “and” are separate entries in the source; they are usually repeats but may differ in a detail not shown here. Equal entries are not always repeated. Toxic doses and inconclusive results are not listed. The calls were made as follows: active = survival T/C of 150% or more; inactive = T/C below 125% in these data.

Tested on: BDF1 mice, P388 leukemia ip, median survival T/C
Experiment: NCI In Vivo Anticancer Drug Screen. Data for tumor model P388 Leukemia (intraperitoneal) in B6D2F1 (BDF1) mice
Settings: endpoint: median survival time, higher = longer survival
How it was run: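 Reported as T/C, where T is the survival measurement in dosed animals and C the same measurement in vehicle controls.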

[1] = dose: 100.0 mg/kg/injection, schedule: Q01DX001 (ip), vehicle: Klucel (hydroxypropylcellulose) (HPC)
[2] = dose: 200.0 mg/kg/injection, schedule: Q01DX001 (ip), vehicle: Klucel (hydroxypropylcellulose) (HPC)
[3] = dose: 100.0 mg/kg/injection, schedule: Q04DX002 (ip), vehicle: saline with Tween-80
[4] = dose: 100.0 mg/kg/injection, schedule: Q01DX009 (ip), vehicle: saline with Tween-80
[5] = dose: 12.5 mg/kg/injection, schedule: Q04DX003 (ip), vehicle: saline
[6] = dose: 25.0 mg/kg/injection, schedule: Q04DX003 (ip), vehicle: saline
[7] = dose: 50.0 mg/kg/injection, schedule: Q04DX003 (ip), vehicle: saline
[8] = dose: 50.0 mg/kg/injection, schedule: Q01DX009 (ip), vehicle: saline with Tween-80
[9] = dose: 200.0 mg/kg/injection, schedule: Q01DX009 (ip), vehicle: saline with Tween-80
[10] = dose: 50.0 mg/kg/injection, schedule: Q01DX009 (ip), vehicle: saline
[11] = dose: 100.0 mg/kg/injection, schedule: Q04DX003 (ip), vehicle: saline
[12] = dose: 200.0 mg/kg/injection, schedule: Q04DX003 (ip), vehicle: saline
[13] = dose: 200.0 mg/kg/injection, schedule: Q04DX003 (ip), vehicle: Klucel (hydroxypropylcellulose) (HPC)
[14] = dose: 400.0 mg/kg/injection, schedule: Q04DX003 (ip), vehicle: Klucel (hydroxypropylcellulose) (HPC)
[15] = dose: 400.0 mg/kg/injection, schedule: Q04DX003 (ip), vehicle: saline
[16] = dose: 6.0 mg/kg/injection, schedule: Q04DX003 (ip), vehicle: Klucel (hydroxypropylcellulose) (HPC)
[17] = dose: 12.0 mg/kg/injection, schedule: Q04DX003 (ip), vehicle: Klucel (hydroxypropylcellulose) (HPC)

Measured: T/C

COC1OC(COC(C)=O)C(OC(C)=O)C(OC(C)=O)[CH]1[Hg][O]C(C)=O (stereo not given)
inactive: dose: 3.13 mg/kg/injection, schedule: Q01DX009 (ip), vehicle: saline 95 % of control | dose: 6.25 mg/kg/injection, schedule: Q01DX009 (ip), vehicle: saline 114 % of control

CC(=O)C(=O)C(C)=O
inactive: [1] 105 % of control | [2] 100 % of control | dose: 400.0 mg/kg/injection, schedule: Q01DX001 (ip), vehicle: Klucel (hydroxypropylcellulose) (HPC) 105 % of control

Cc1ccc(N(OC(=O)c2ccccc2)C(C)(C)C)cc1
inactive: dose: 25.0 mg/kg/injection, schedule: Q04DX002 (ip), vehicle: saline with Tween-80 93 % of control | dose: 50.0 mg/kg/injection, schedule: Q04DX002 (ip), vehicle: saline with Tween-80 109 % of control | [3] 111 % of control and 113 % of control

O/C(=C/C(=S)S)c1cccs1
inactive: dose: 0.1 mg/kg/injection, schedule: Q04DX003 (ip), vehicle: water 88 % of control | dose: 0.2 mg/kg/injection, schedule: Q04DX003 (ip), vehicle: water 97 % of control | dose: 0.39 mg/kg/injection, schedule: Q01DX009 (ip), vehicle: water 101 % of control | dose: 0.4 mg/kg/injection, schedule: Q04DX003 (ip), vehicle: water 95 % of control | dose: 0.78 mg/kg/injection, schedule: Q01DX009 (ip), vehicle: water 97 % of control | dose: 0.8 mg/kg/injection, schedule: Q04DX003 (ip), vehicle: water 89 % of control | dose: 1.56 mg/kg/injection, schedule: Q01DX009 (ip), vehicle: water 92 % of control | dose: 3.12 mg/kg/injection, schedule: Q01DX009 (ip), vehicle: water 100 % of control | dose: 6.25 mg/kg/injection, schedule: Q01DX009 (ip), vehicle: water 102 % of control | dose: 6.25 mg/kg/injection, schedule: Q04DX003 (ip), vehicle: water 111 % of control | dose: 12.5 mg/kg/injection, schedule: Q01DX009 (ip), vehicle: water 94 % of control

CCN=NNc1ccc(C)cc1
inactive: dose: 8.25 mg/kg/injection, schedule: Q01DX009 (ip), vehicle: saline with Tween-80 90 % of control | dose: 16.5 mg/kg/injection, schedule: Q01DX009 (ip), vehicle: saline with Tween-80 100 % of control | dose: 66.0 mg/kg/injection, schedule: Q01DX009 (ip), vehicle: saline with Tween-80 100 % of control | [4] 108 % of control

N=C(N)SC(c1ccccc1)c1ccccc1
inactive: [1] 100 % of control | [2] 104 % of control

O=C1NCCN1c1ccccn1
inactive: [5] 100 % of control | [6] 90 % of control | [7] 95 % of control

CCCCCCCCCCSCCSCCSCCCCCCCCCC
inactive: dose: 25.0 mg/kg/injection, schedule: Q01DX001 (ip), vehicle: Klucel (hydroxypropylcellulose) (HPC) 100 % of control | dose: 50.0 mg/kg/injection, schedule: Q01DX001 (ip), vehicle: Klucel (hydroxypropylcellulose) (HPC) 100 % of control | [1] 100 % of control

COc1cc2c(cc1OC)C(CNC(=O)/C=C/c1cc(OC)c(OC)c(OC)c1)C2 (stereo not given)
inactive: [8] 98 % of control | [4] 107 % of control | [9] 88 % of control

COc1ccc(C)cc1NN
inactive: dose: 12.5 mg/kg/injection, schedule: Q01DX009 (ip), vehicle: saline 100 % of control | [10] 100 % of control | [7] 109 % of control | [11] 104 % of control | [12] 95 % of control

O=C1CCCCCCCCCCC1Cc1cc(O)c(CC2CCCCCCCCCCC2=O)cc1O (stereo not given)
inactive: [8] 96 % of control | [4] 94 % of control | [9] 100 % of control

COC(=O)C1OC(C)(C)OC1C(=O)OC (stereo not given)
inactive: [3] 90 % of control | dose: 200.0 mg/kg/injection, schedule: Q04DX002 (ip), vehicle: saline with Tween-80 97 % of control | dose: 400.0 mg/kg/injection, schedule: Q04DX002 (ip), vehicle: saline with Tween-80 90 % of control

CC(=O)C1CCC=C2C1CC1CC2C1(C)C (stereo not given)
inactive: dose: 100.0 mg/kg/injection, schedule: Q04DX003 (ip), vehicle: Klucel (hydroxypropylcellulose) (HPC) 100 % of control | [13] 109 % of control | [14] 104 % of control

COc1ccc2c3c1OC1C(Oc4nnnn4-c4ccccc4)C=CC4C(C2)N(C)CCC341 (stereo not given)
inactive: [5] 105 % of control | [6] 113 % of control | [7] 99 % of control | [11] 103 % of control | [12] 103 % of control | [15] 99 % of control

Nc1c(Br)cc2c(c1Br)Cc1cc(Cl)ccc1-2
inactive: [16] 100 % of control | [17] 100 % of control | dose: 25.0 mg/kg/injection, schedule: Q01DX009 (ip), vehicle: Klucel (hydroxypropylcellulose) (HPC) 100 % of control | dose: 25.0 mg/kg/injection, schedule: Q04DX003 (ip), vehicle: Klucel (hydroxypropylcellulose) (HPC) 100 % of control | dose: 50.0 mg/kg/injection, schedule: Q01DX009 (ip), vehicle: Klucel (hydroxypropylcellulose) (HPC) 87 % of control and 90 % of control and 100 % of control | dose: 50.0 mg/kg/injection, schedule: Q04DX003 (ip), vehicle: Klucel (hydroxypropylcellulose) (HPC) 90 % of control | [13] 118 % of control | [14] 95 % of control and 104 % of control

CC(=O)OC1CCC2(C)C3=C(CCC2C1)C1C(OC(=O)c2ccccc2[N+](=O)[O-])CC(c2ccc(=O)oc2)C1(C)CC3 (stereo not given)
inactive: dose: 0.25 mg/kg/injection, schedule: Q01DX009 (ip), vehicle: Klucel (hydroxypropylcellulose) (HPC) 102 % of control | dose: 0.5 mg/kg/injection, schedule: Q01DX009 (ip), vehicle: Klucel (hydroxypropylcellulose) (HPC) 111 % of control | dose: 1.0 mg/kg/injection, schedule: Q01DX009 (ip), vehicle: Klucel (hydroxypropylcellulose) (HPC) 100 % of control

Cc1c(C)c(N)c(C)c(C)c1N
inactive: dose: 3.0 mg/kg/injection, schedule: Q01DX009 (ip), vehicle: Klucel (hydroxypropylcellulose) (HPC) 91 % of control | dose: 3.0 mg/kg/injection, schedule: Q04DX003 (ip), vehicle: Klucel (hydroxypropylcellulose) (HPC) 108 % of control | dose: 6.0 mg/kg/injection, schedule: Q01DX009 (ip), vehicle: Klucel (hydroxypropylcellulose) (HPC) 87 % of control | [16] 100 % of control | dose: 12.0 mg/kg/injection, schedule: Q01DX009 (ip), vehicle: Klucel (hydroxypropylcellulose) (HPC) 95 % of control | [17] 91 % of control

CC(=O)Nc1nc(C)c(CCC#N)c(=O)[nH]1
inactive: [11] 86 % of control | [12] 90 % of control | [15] 86 % of control

CC1(c2ccccc2)O[C@@H]2C[C@H]3[C@@H]4CCC5=CC(=O)C=C[C@]5(C)[C@@]4(F)[C@@H](O)C[C@]3(C)[C@]2(C(=O)CO)O1 (stereo not given in full)
inactive: [10] 100 % of control | dose: 100.0 mg/kg/injection, schedule: Q01DX009 (ip), vehicle: saline 100 % of control | dose: 132.0 mg/kg/injection, schedule: Q04DX003 (ip), vehicle: saline 90 % of control and 95 % of control (2×) | [12] 86 % of control and 95 % of control and 100 % of control | dose: 300.0 mg/kg/injection, schedule: Q04DX003 (ip), vehicle: saline 105 % of control | dose: 400.0 mg/kg/injection, schedule: Q04DX003 (ip), vehicle: alcohol 105 % of control

O=C(Nc1ccccc1F)Nc1cc(Cl)ccc1Cl
inactive: dose: 50.0 mg/kg/injection, schedule: Q04DX003 (ip), vehicle: saline sonified 90 % of control | dose: 100.0 mg/kg/injection, schedule: Q04DX003 (ip), vehicle: saline sonified 86 % of control | dose: 200.0 mg/kg/injection, schedule: Q04DX003 (ip), vehicle: saline sonified 90 % of control

Nc1nc(SCCc2ccccc2)c2[nH]cnc2n1
inactive: [4] 109 % of control | dose: 100.0 mg/kg/injection, schedule: Q04DX003 (ip), vehicle: saline with Tween-80 104 % of control | [9] 100 % of control | dose: 200.0 mg/kg/injection, schedule: Q04DX003 (ip), vehicle: saline with Tween-80 100 % of control | dose: 400.0 mg/kg/injection, schedule: Q01DX009 (ip), vehicle: saline with Tween-80 90 % of control | dose: 400.0 mg/kg/injection, schedule: Q04DX003 (ip), vehicle: saline with Tween-80 104 % of control

CCS(=O)(=O)OCCCCOS(=O)(=O)CC
inactive: [4] 108 % of control
